This passage reports GI50 and TGI results from PubChem BioAssay (NCI).

Molecules are shown by their SMILES. Where “and” joins values, the source holds several entries; their conditions need not be identical. Equal values may be shown once.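 Cells were grown in 96-well plates and exposed to each compound for 48 hours at five concentrations; endpoints were interpolated linearly between bracketing concentrations, or set to the highest concentration if not reached. The concentration for 50% growth inhibition is given as GI50. TGI marks complete inhibition of growth.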 Bounds are passed on as bounds.

Test systems include ACHN renal; CCRF-CEM leukemia; EKVX NSCLC; HOP-92 NSCLC; LOX IMVI melanoma; SK-MEL-2 melanoma; SR leukemia; SW-620 colon; UACC-62 melanoma.
Common to all, as to assay: DTP human tumour cell line panel, 48 h

With `CCN(CC)CCNC(=O)C(Cl)=C1C(Cl)=C(Cl)C(Cl)=C1Cl`, the GI50 was 3.35 µM in the test on ACHN renal; 3.15 µM with CCRF-CEM leukemia; 6.44 µM in the test on EKVX NSCLC; 2.37 µM in the test with HOP-92 NSCLC; 1.83 µM with LOX IMVI melanoma; 3 µM in the test with SK-MEL-2 melanoma. Also, the values for the GI50 in the test on SR leukemia, with SW-620 colon and in the test on UACC-62 melanoma were 3.36 µM, 3.25 µM and 2.18 µM, respectively. Further, the TGI in the test with ACHN renal was 24.6 µM; in the test on CCRF-CEM leukemia, greater than 100 µM; with EKVX NSCLC, greater than 100 µM; with HOP-92 NSCLC it was 8.62 µM; in the test on LOX IMVI melanoma, 4.53 µM; in the test on SK-MEL-2 melanoma, 11.6 µM. The TGI in the test on SR leukemia was greater than 100 µM; in the test with SW-620 colon, 12.5 µM; in the test on UACC-62 melanoma, 12.4 µM.
For the molecule `COC1/C=C/OC2(C)Oc3c(C)c(O)c4c(O)c(c(C=NOC(c5ccccc5)c5ccccc5)c(O)c4c3C2=O)NC(=O)/C(C)=C/C=C/C(C)C(O)C(C)C(O)C(C)C(OC(C)=O)C1C` (configuration not stated), the GI50 in the test on ACHN renal was 1.17 µM; in the test with CCRF-CEM leukemia it was 0.42 µM; in the test with EKVX NSCLC, 1.82 µM; in the test on HOP-92 NSCLC, 0.972 µM; with LOX IMVI melanoma it was 0.913 µM; with SK-MEL-2 melanoma, 1.05 µM. Moreover, the GI50 in the test on SR leukemia is 1.94 µM; in the test with SW-620 colon, 1.35 µM; with UACC-62 melanoma, 0.935 µM. Also, the TGI worked out at 2.73 µM in the test on ACHN renal; 3.62 µM in the test on CCRF-CEM leukemia; 7.67 µM in the test with EKVX NSCLC; 2.74 µM in the test with HOP-92 NSCLC; 1.82 µM in the test with LOX IMVI melanoma; 2.54 µM in the test with SK-MEL-2 melanoma. Moreover, the concentration for total growth inhibition (TGI) in the test with SR leukemia stood at 5.93 µM; with SW-620 colon, 3.72 µM; in the test on UACC-62 melanoma, 1.97 µM.
Take `Nc1nc(Cl)nc2c1ncn2C1OC(CO)C(O)C1O` (configuration not stated): the GI50 in the test on ACHN renal is 3.98 µM; in the test on CCRF-CEM leukemia, 0.264 µM; in the test with EKVX NSCLC, greater than 96.8 µM; in the test on HOP-92 NSCLC it was 6.27 µM; in the test on LOX IMVI melanoma, 15.2 µM; with SK-MEL-2 melanoma it was greater than 100 µM. The GI50 in the test on SR leukemia was 8.92 µM; in the test with SW-620 colon, 36.1 µM; with UACC-62 melanoma, 5.7 µM. For the same molecule, the TGI in the test with ACHN renal, in the test on CCRF-CEM leukemia, in the test with EKVX NSCLC, in the test on HOP-92 NSCLC, with LOX IMVI melanoma and in the test with SK-MEL-2 melanoma was greater than 100 µM in each case. For the same molecule, the TGI in the test with SR leukemia, with SW-620 colon and in the test on UACC-62 melanoma was greater than 100 µM in each case.
As for `O=C(Nc1ccc(Cl)cc1)c1cc2ccccc2cc1OP(=O)(O)O`, the GI50 in the test on ACHN renal was 3.04 µM; with CCRF-CEM leukemia, 2.82 µM; in the test with EKVX NSCLC, 2.82 µM; in the test on HOP-92 NSCLC, 2.46 µM; in the test with LOX IMVI melanoma, 3.52 µM; in the test with SK-MEL-2 melanoma, 3.58 µM. Further, the GI50 is 23.7 µM with SR leukemia, 4.07 µM in the test with SW-620 colon and 2.66 µM in the test with UACC-62 melanoma. The TGI in the test with ACHN renal was 49.3 µM; in the test on CCRF-CEM leukemia, greater than 100 µM; in the test on EKVX NSCLC, 25.2 µM; in the test on HOP-92 NSCLC, 8.45 µM; in the test on LOX IMVI melanoma, 17.5 µM; in the test on SK-MEL-2 melanoma it was 24.4 µM. For the same molecule, the TGI was greater than 100 µM with SR leukemia, 37.5 µM in the test with SW-620 colon and greater than 100 µM in the test with UACC-62 melanoma.
As to `O=C(c1ccccc1)c1c2n(c3c1cc(O)c1ccccc13)CCN2`, the GI50 is 13.5 µM in the test on ACHN renal; 1.99 µM in the test on CCRF-CEM leukemia; 8.63 µM with EKVX NSCLC; 2.63 µM in the test with HOP-92 NSCLC; 2.7 µM in the test with LOX IMVI melanoma; 3.02 µM in the test with SK-MEL-2 melanoma. For the same molecule, the results for the GI50 with SR leukemia, with SW-620 colon and in the test on UACC-62 melanoma were 1.06 µM, 3.47 µM and 5.15 µM, respectively. Further, the TGI in the test on ACHN renal came out at 33.1 µM; in the test on CCRF-CEM leukemia, 4.67 µM; in the test with EKVX NSCLC, 22.5 µM; with HOP-92 NSCLC, 9.36 µM; in the test with LOX IMVI melanoma, 6.87 µM; in the test on SK-MEL-2 melanoma, 8.55 µM. In addition, the TGI in the test with SR leukemia is 3.46 µM; in the test on SW-620 colon, 14.8 µM; with UACC-62 melanoma, 17.4 µM.
As for `COC(=O)[C@H](C)[C@@H]1CC[C@](C)(CCC2=C(C)CCCC2(C)C)OO1`, the TGI in the test with ACHN renal, with CCRF-CEM leukemia, in the test with EKVX NSCLC, with HOP-92 NSCLC, with LOX IMVI melanoma and in the test on SK-MEL-2 melanoma was greater than 25 µM throughout. In addition, the TGI in the test on SR leukemia, in the test on SW-620 colon and in the test with UACC-62 melanoma was greater than 25 µM each time.
For `C=CCn1c(=O)c(C(=O)NC(=O)OCC)cn(C2CCCCC2)c1=O`, the TGI in the test on ACHN renal, in the test with CCRF-CEM leukemia, with EKVX NSCLC, in the test with HOP-92 NSCLC, with LOX IMVI melanoma and in the test with SK-MEL-2 melanoma was greater than 100 µM in each case. Moreover, the total growth inhibition concentration (TGI) in the test with SR leukemia, in the test with SW-620 colon and in the test on UACC-62 melanoma was greater than 100 µM each time.
Consider `C=C(C)C1CCC2(C(=O)O)CCC3(C)C(CCC4C5(C)CCC(O)C(C)(C)C5CCC43C)C12` (configuration not stated), for which the TGI in the test with ACHN renal is 21.1 µM; in the test with CCRF-CEM leukemia, 36.5 µM; in the test with EKVX NSCLC, 44.9 µM; with HOP-92 NSCLC, 12.4 µM; with LOX IMVI melanoma, 52.8 µM; in the test with SK-MEL-2 melanoma, 32.2 µM. The figures for the TGI in the test on SR leukemia, with SW-620 colon and in the test with UACC-62 melanoma were 27.6 µM, 51.5 µM and 32.2 µM, respectively.
For the molecule `CSc1nc(SC)c2c(C)cn(C3OC(C)C(O)C(O)C3O)c2n1` (configuration not stated), the TGI in the test with ACHN renal is greater than 100 µM; in the test on CCRF-CEM leukemia it was greater than 100 µM; in the test with EKVX NSCLC, greater than 100 µM; with HOP-92 NSCLC, 83.4 µM; in the test with LOX IMVI melanoma, greater than 100 µM; with SK-MEL-2 melanoma, greater than 100 µM. The TGI in the test with SR leukemia, in the test with SW-620 colon and in the test with UACC-62 melanoma was greater than 100 µM in each case.
Regarding `O=C(NCCCl)NCc1ccccc1`, the TGI in the test with ACHN renal, in the test on CCRF-CEM leukemia, in the test on EKVX NSCLC, in the test with HOP-92 NSCLC, in the test on LOX IMVI melanoma and in the test with SK-MEL-2 melanoma was greater than 100 µM throughout. Moreover, the TGI in the test with SR leukemia, in the test on SW-620 colon and in the test with UACC-62 melanoma was greater than 100 µM each time.
For the molecule `COC1C(C)OC(OC2CC(C)(O)Cc3cc4c(c(O)c32)C(=O)c2c(O)cc3c(c2C4=O)OC2OC3(C)C(O)C(N(C)C)C2O)C(OC)C1(C)OC` (configuration not stated), the GI50 in the test on ACHN renal is 0.216 µM; with CCRF-CEM leukemia, 0.0584 µM and 0.0612 µM; with HOP-92 NSCLC it was 0.00296 µM and 0.0156 µM; in the test on LOX IMVI melanoma, 0.0226 µM and 0.0661 µM; in the test with SK-MEL-2 melanoma, 0.0303 µM; in the test with SR leukemia, 0.0114 µM. Besides, the GI50 in the test with SW-620 colon was 0.038 µM and 0.024 µM; in the test with UACC-62 melanoma, 0.00441 µM and 0.0312 µM. Moreover, the TGI in the test with CCRF-CEM leukemia is 0.872 µM and 1.32 µM; with EKVX NSCLC it was 1.21 µM and 0.304 µM; with SK-MEL-2 melanoma, 0.137 µM and 0.0386 µM; in the test with SW-620 colon it was 2.84 µM and 2.41 µM.
